# Measurements taken from patent publication US7931742B2, “Biocidal Structural Barrier (BSB)” (BASF SE, priority 2005, dated 2011).
# Tested on: termites
# Test: Anti-termite effectiveness of chlorfenapyr incorporated in a concrete block (barrier test after NF X41-541)
# Format: in vivo
# Procedure: A block of concrete, 10 cm high, with passages for the termites, is poured, incorporating the treatment product in the mixing water.
# After drying and an infiltration test, the test set-up and performance follow the standard NF X41-541. The barrier effect of the specimen is verified by evaluation of the mortality and penetration of the termites in the clean compartment containing blocks of wood. An evaluation of the blocks of wood following the scoring of EN NF 117 is performed at the end of the test.
smiles,measurement,setting,value
CCOCn1c(-c2ccc(Cl)cc2)c(C#N)c(Br)c1C(F)(F)F [chlorfenapyr],Barrier effect of treated concrete against termites,"concrete treated with chlorfenapyr, overall conclusion",effectively prevents termites from attacking a building
same,Rate of survival %,"series A: concentration studied 0.05 % (m/m), retention in the concrete: product 261 ppm, chlorfenapyr 56 ppm, 132 g/m^3",0%
same,Rate of survival %,"series B: concentration studied 0.1 % (m/m), retention in the concrete: product 521 ppm, chlorfenapyr 112 ppm, 265 g/m^3",0%
same,Rate of survival %,"series C: concentration studied 0.3 % (m/m), retention in the concrete: product 1567 ppm, chlorfenapyr 337 ppm, 795 g/m^3",0%
same,Rate of survival %,"series D: concentration studied 0.6 % (m/m), retention in the concrete: product 3132 ppm, chlorfenapyr 673 ppm, 1588 g/m^3",0%
